{
  "source": "patent US20120039796A1",
  "about": "“Novel method for creating, suspending and stabilizing electronically modified oxygen derivatives, along with creating, suspending and stabilizing electronically modified reaction intermediates, in a bio compatible fluorocarbon suspension, for the purpose of inducing a cascading immune response in …” (priority 2010, published 2012)",
  "key": {"cancer cell cultures": {"tested_on": "cancer cell cultures", "conditions": "cited from earlier work"}, "TrxR": {"biological_target": "T1, TrxR (Homo sapiens, UniProt Q16881)", "T1 sequence (Q16881 151-649 limits assumed)": "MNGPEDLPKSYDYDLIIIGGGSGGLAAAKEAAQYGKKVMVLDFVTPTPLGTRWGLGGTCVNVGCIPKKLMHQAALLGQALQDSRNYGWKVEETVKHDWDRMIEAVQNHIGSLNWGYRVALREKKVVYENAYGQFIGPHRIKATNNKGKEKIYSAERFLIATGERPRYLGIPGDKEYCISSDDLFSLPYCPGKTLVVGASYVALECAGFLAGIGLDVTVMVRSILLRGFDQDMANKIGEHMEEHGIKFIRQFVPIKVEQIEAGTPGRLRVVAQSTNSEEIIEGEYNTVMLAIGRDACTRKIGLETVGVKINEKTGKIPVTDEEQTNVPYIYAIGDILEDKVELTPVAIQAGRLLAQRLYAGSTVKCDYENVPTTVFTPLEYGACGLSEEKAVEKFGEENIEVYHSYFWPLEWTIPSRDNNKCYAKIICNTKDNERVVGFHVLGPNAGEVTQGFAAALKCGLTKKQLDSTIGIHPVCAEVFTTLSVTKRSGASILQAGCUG", "conditions": "cited from earlier work"}, "[1]": {"conditions": "cited from earlier work"}, "[2]": {"assay": "Stability of ozone in Fluorodecalin stored frozen at -50 C for 30 days, absorbance at 260 nm", "assay_type": "physicochemical", "procedure": "(§1) After the ten hours expired, the spectrometer was quickly restarted for another 10 hours, were after the first 4 hours and 20 min in the second run is where the sample reached its half life. Once the 20 hours expired, the ABS reading was 0.082 were it took another 10 hours for Ozone too fully decay.\nAfter 30 days, the sample that was placed in the freezer was removed out of the freezer, with in 5 min the sample was completely thawed, which then a 0.01 ml sample was quickly placed it into the spectrometer were 3 consecutive single non timed scans were taken, with an average highest ABS reading of 0.688."}, "[3]": {"assay": "Stability of ozone in 95% pure Fluorodecalin (C10F18), non-frozen, continuous absorbance at 260 nm", "assay_type": "physicochemical", "procedure": "as §1\nIn the first PFC experiment, the ozone was stable within the PFC matrix for over 5 hours without any appreciable decay, after 5 hours the sample started to deviate and when the 10 hours mark was reached, the reading was around 0.600 ABS, in the last 5 hours of the run is when the sample lost 0.09 ABS, this was excellent result. In the second part of the experiment is where the sample decay accelerated. […] It should be noted the sample of PFC was 95% pure, and was the only purity I could attain at the time for the experiment and due to time constraints another sample could not have been attained. It should also be noted when the sample was finally removed from the machine for clean up, about 60 hours later after the initial experiment, half the sample evaporated. […] The utility of this patent is self evident; this invention solves the problems that plagued modern ozone therapy for the last 100 years."}, "[4]": {"assay": "Decay of ozone bubbled into distilled water, absorbance at 260 nm", "assay_type": "physicochemical", "procedure": "15 ml of distilled h20 was used to bubble a mixture of ozone/oxygen through the sample for 30 min in a glass bubbler using a custom made proton exchange membrane ozone machine, which then 0.01 ml sample was quickly placed in a hatch DR 4000 u spectrometer, the machine was zeroed before the sample was placed in, also the absorbance wave length was set for 260 nm, the detection absorbance band of ozone, initial results at the peak were 0.590 ABS, but quickly decayed and after 20 min the ozone present in the sample was completely gone. This is the main problem with modem ozone therapy, the sample disappears with a predictable results extremely fast decay rate with in 20 min, and there is not enough of a concentration left to make a therapeutic difference, especially for burns, ulcerations, tendon injections."}, "[5]": {"conditions": "cited from earlier work", "remark": "listed apart in the source"}},
  "data": [
    {"compound": "O=CC[C@@H](O)[C@H](O)[C@H](O)CO", "note": "[Example 2-DG, 2-Deoxy-D-glucose]", "values": [
      {"measurement": "apoptosis", "setting": "cancer cell cultures; by glucose deprivation", "value": "induces apoptosis"},
      {"measurement": "effect on cell growth", "setting": "cancer cell cultures", "value": "hampers cell growth"}
    ]},
    {"compound": "O=c1c(O)c(-c2cc(O)c(O)c(O)c2)oc2cc(O)cc(O)c12", "note": "[myricetin]", "values": [
      {"measurement": "inhibitory effect on TrxR", "setting": "TrxR", "value": "NADPH-, concentration-, and time-dependent inhibitory effect"}
    ]},
    {"compound": "O=O", "note": "[oxygen]", "values": [
      {"measurement": "solubility in PFC liquids", "setting": "[1]; PFC liquids for biomedical applications, 37° C., 1 atm", "value": "40-50 vol. %"},
      {"measurement": "solubility in water", "setting": "[1]; water, 37° C., 1 atm", "value": 2.5, "unit": "vol. %"}
    ]},
    {"compound": "O=[O+][O-]", "note": "[ozone]", "values": [
      {"measurement": "stability in the frozen state", "setting": "[2]; 30 days at -50 C", "value": "fully stabilized"},
      {"measurement": "average highest ABS reading after storage", "setting": "[2]; 30 days in freezer at -50 C, thawed, 3 scans", "value": 0.688, "unit": "ABS"},
      {"measurement": "initial absorbance at the highest peak", "setting": "[3]; 20/80 ozone/oxygen bubbled 20 min in Fluorodecalin, 260 nm", "value": "around 0.690 ABS"},
      {"measurement": "absorbance at the 10 hours mark", "setting": "[3]; Fluorodecalin, non-frozen", "value": "around 0.600 ABS"},
      {"measurement": "absorbance once 20 hours expired", "setting": "[3]; Fluorodecalin, non-frozen", "value": 0.082, "unit": "ABS"},
      {"measurement": "further time for ozone to fully decay after the 20 hours", "setting": "[3]; Fluorodecalin, non-frozen", "value": 10, "unit": "h"},
      {"measurement": "deviation in ABS over the first 10 hours", "setting": "[3]; Fluorodecalin, non-frozen, first 10 hour run", "value": 0.09, "unit": "ABS"},
      {"measurement": "time after which ozone in the sample was completely gone", "setting": "[4]; distilled h20", "value": 20, "unit": "min"},
      {"measurement": "initial absorbance at the peak", "setting": "[4]; ozone/oxygen bubbled 30 min through distilled h20, 260 nm", "value": 0.590, "unit": "ABS"},
      {"measurement": "time stable in air at -50 degrees C", "setting": "[5]; air, -50 degrees C", "value": "about 3 months"},
      {"measurement": "half-life in air", "setting": "[5]; air", "value": 12, "unit": "h"},
      {"measurement": "half-life in saline", "setting": "[5]; saline", "value": "less than 20 min"},
      {"measurement": "half-life in water", "setting": "[5]; watery solution", "value": "about 20 minutes"},
      {"measurement": "amount dissolved in perfluorodecalin relative to oxygen", "setting": "[1]; at stp", "value": 13, "unit": "times"}
    ]},
    {"compound": "FC1(F)C(F)(F)C(F)(F)C2(F)C(F)(F)C(F)(F)C(F)(F)C(F)(F)C2(F)C1(F)F", "note": "(centres unmarked) [perfluorodecalin]", "values": [
      {"measurement": "volume of oxygen dissolved by 100 ml", "setting": "[1]; 100 ml perfluorodecalin at 25° C., oxygen at STP", "value": 49, "unit": "mL"}
    ]},
    {"compound": "O=c1c(O)c(-c2ccc(O)c(O)c2)oc2cc(O)cc(O)c12", "note": "[quercetin]", "values": [
      {"measurement": "inhibitory effect on TrxR", "setting": "TrxR", "value": "NADPH-, concentration-, and time-dependent inhibitory effect"}
    ]},
    {"compound": "O=C1c2c(O)cc(O)cc2O[C@H](c2ccc(O)c(O)c2)[C@H]1O", "note": "[taxifolin]", "values": [
      {"measurement": "inhibitory effect on TrxR", "setting": "TrxR", "value": "NADPH-, concentration-, and time-dependent inhibitory effect"}
    ]},
    {"compound": "catechin", "values": [
      {"measurement": "inhibitory effect on TrxR", "setting": "TrxR", "value": "NADPH-, concentration-, and time-dependent inhibitory effect"}
    ]}
  ]
}
